Several values for one entry are separate records, joined by “and”; a condition that tells them apart may be missing. Identical values can stand only once.
Key:
[1] = pKa measurement of unformulated amine lipid (fluorescence, method of Jayaraman et al.); type: physicochemical; conditions: 100 μM in 0.1 M phosphate buffer, pH 2.0-12.0
Description: The pKa of each amine lipid was determined according to the method in Jayaraman, et al. (Angewandte Chemie, 2012) with the following adaptations. […] Lipid was diluted to 100 μM in 0.1 M phosphate buffer (Boston Bioproducts) where the pH ranged from 2.0-12.0. Fluorescence intensity was measured using excitation and emission wavelengths of 321 nm and 448 nm.

[2] = RNA encapsulation efficiency of LNPs (Ribogreen fluorescence assay); type: physicochemical; conditions: for % E / Encapsulation (%): LNP; for % E (encapsulation efficiency): LNP with G534 sgRNA and Cas9 mRNA, sg:mRNA 1:2, experiment 109
Method in brief: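 Encapsulation efficiency is (Total RNA − Free RNA)/Total RNA. Free RNA was quantified by RiboGreen fluorescence (488/525 nm, ~10 min, RT, dark) in plain TE buffer; total RNA was quantified after LNP lysis with 0.2% Triton X-100, both against RNA standard curves.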

[3] = Dynamic light scattering of LNPs: Z-average diameter, number average diameter, PDI; type: physicochemical
Method in brief: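 Values reported are the Z-average (intensity-weighted mean size), the number-average diameter and the PDI (spread of sizes, 0 = fully uniform). All three came from dynamic light scattering of LNP preparations after dilution in PBS.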

TTR rat gene = experiment: In vivo editing in rat liver, sgRNA targeting TTR (G534), % indel by NGS; set-up: species or system Sprague Dawley female rats; conditions: G534 sgRNA + Cas9 mRNA LNP, Experiment 109
Description: Sprague Dawley female rats ranging from 6-7 weeks of age were used in each study. Each animal was weighed and dosing solutions were prepared based on body weight. LNPs were dosed via the lateral tail vein in a volume of 0.35 mL per animal (approximately 2 mL per kilogram body weight). The animals were periodically observed for adverse effects for at least 24 hours post dose.
For studies measuring in vivo editing in liver, animals were dosed at 0.1 mg/kg or 0.3 mg/kg. Animals were euthanized by CO2 asphyxiation 6 days post dose. At necropsy, the liver was collected for editing analysis by NGS and blood was collected into serum separator tubes for serum TTR measurement.
In brief, to quantitatively determine the efficiency of editing at the target location in the genome, genomic DNA was isolated and deep sequencing was utilized to identify the presence of insertions and deletions introduced by gene editing.
PCR primers were designed around the target site (e.g., within B2M), and the genomic area of interest was amplified. Additional PCR was performed according to the manufacturer's protocols (Illumina) to add the necessary chemistry for sequencing. The amplicons were sequenced on an Illumina MiSeq instrument. The reads were aligned to the mouse or rat reference genome (e.g., GRCm38) after eliminating those having low quality scores. The resulting files containing the reads were mapped to the reference genome (BAM files), where reads that overlapped the target region of interest were selected and the number of wild type reads versus the number of reads which contain an insertion, substitution, or deletion was calculated.
The editing percentage (e.g., the “indel efficiency” or “percent indels”) was defined as the total number of sequence reads with insertions or deletions over the total number of sequence reads, including wild type.
In vivo delivery in a rat model was assessed by measuring editing efficiency for materials delivered with formulations including various amine lipid compounds. Cas9 mRNA (SEQ ID NO: 6) was formulated as LNPs with an sgRNA targetting the TTR rat gene (G534, SEQ ID NO: 5). LNPs were formulated and characterized as described in Example 123. Analysis of average particle size, polydispersity (PDI), total RNA content and encapsulation efficiency of RNA are shown in Table 10.
Sprague Dawley female rats were dosed i.v. at 0.1 or 0.3 mg/kg and assessed for editing in liver.

Transthyretin (TTR) = experiment: Serum TTR measurement in rats after LNP dosing; type: in vivo, Sprague Dawley female rats; conditions: Experiment 109; for Serum TTR % TSS: rat serum TTR relative to TSS control; for Serum TTR: rat serum, G534 sgRNA + Cas9 mRNA LNP
[4] = sg:mRNA 1:1, N/P 6.0, 50/9/38/3, Table 4, Experiments 101-104
[5] = sg:mRNA 1:1, N/P about 6, amine lipid/DSPC/cholesterol/PEG-2k-DMG 50/9/38/3, Table 2, Experiments 2-20
[6] = LNP, sg:mRNA 1:1, N/P 6.0, 50/9/38/3, Table 4, Experiments 101-104
[7] = LNP, sg:mRNA 1:1, N/P about 6, 50/9/38/3, Table 2, Experiments 2-20
[8] = sg:mRNA 1:2, N/P 6.0, 50/9/38/3, Table 4, Experiment 105
[9] = LNP with G534 sgRNA and Cas9 mRNA, sg:mRNA 1:2, experiment 109
[10] = LNP, sg:mRNA 1:2, N/P 6.0, 50/9/38/3, Table 4, Experiment 105
[11] = sg:mRNA 1:2, N/P about 6, 50/9/38/3, G650 sgRNA, Table 8, Experiment 108
[12] = LNP, sg:mRNA 1:1.3, N/P about 6, 50/9/38/3, Table 2, Experiment 1
[13] = LNP, sg:mRNA 1:2, N/P about 6, 50/9/38/3, G650, Table 8, Experiment 108
[14] = LNP, sg:mRNA 1:2, N/P about 6, 50/9/38/3, Table 6, Experiments 106-107

Row | Structure (SMILES) | pKa [1] | % E [2, 4] | Encapsulation (%) [2, 5] | Number mean (nm) [3, 6] | PDI [3, 6] | Z-avg (nm) [3, 6] | Number mean (nm) [3, 7] | PDI [3, 7] | Z-avg (nm) [3, 7] | % E (encapsulation efficiency) [2] | % E [2, 8] | Number mean (nm) [3, 9] | PDI [3, 9] | Z-avg (nm) [3, 9] | Number mean (nm) [3, 10] | PDI [3, 10] | Z-avg (nm) [3, 10] | Editing Mean % Indel (TTR rat gene; i.v. 0.1 mg/kg) | Editing Mean % Indel (TTR rat gene; i.v. 0.3 mg/kg) | Serum TTR % TSS (Transthyretin (TTR); G534, i.v. 0.1 mg/kg) | further results
1 | CCCCCCCCCCOC(=O)CCCCCCCC(=O)OCC(COC(=O)CCC(OCCCCCCCC)OCCCCCCCC)COC(=O)OCCCN(CC)CC (stereo not shown) [Compound 59, 1-(3-((4,4-bis(octyloxy)butanoyl)oxy)-2-((((3-(diethylamino)propoxy)carbonyl)oxy)methyl)propyl) 9-decyl nonanedioate] | 6.4 | 98% and 96% | 99% and 97% | 72.60 nm and 67.12 nm | 0.012 and 0.024 | 87.31 nm and 83.42 nm | 84.05 nm and 73.04 nm | – | 100.4 nm and 87.86 nm | 98% | 99% | 75 nm | 0.04 | 91 nm | 79.11 nm | 0.041 | 96.76 nm | 12.4% | 46.2% | 69.4 % TSS | Serum TTR % TSS (Transthyretin (TTR); G534, i.v. 0.3 mg/kg): 20.9 % TSS; Serum TTR (Transthyretin (TTR); i.v. 0.1 mg/kg): 1124.0 µg/mL; Serum TTR (Transthyretin (TTR); i.v. 0.3 mg/kg): 337.9 µg/mL
2 | CCCCC/C=C\C/C=C\CCCCCCCC(=O)OCC(COC(=O)CCC(OCCCCCCCC)OCCCCCCCC)COC(=O)OCCCN(CC)CC (stereo not shown) [Compound 1, 3-((4,4-bis(octyloxy)butanoyl)oxy)-2-((((3-(diethylamino)propoxy)carbonyl)oxy)methyl)propyl (9Z,12Z)-octadeca-9,12-dienoate, reference compound] | 6.4 | 98% and 99% and 97% | 96% and 99% and 98% and 97% | 69.51 nm and 62.86 nm and 64.97 nm and 63.19 nm | – | 84.93 nm and 79.83 nm and 82.71 nm and 79.18 nm | – | – | – | 98% | 99% | 73 nm | 0.01 | 88 nm | 73.15 nm | 0.033 | 88.60 nm | 21.1% | 61.3% | 56.6 % TSS | Encapsulation (%) ([2]; sg:mRNA 1:1.3, N/P about 6, amine lipid/DSPC/cholesterol/PEG-2k-DMG 50/9/38/3, Table 2, Experiment 1): 97%; % E [2, 11]: 98%; % E ([2]; sg:mRNA 1:2, N/P about 6, 50/9/38/3, TTR sgRNA (SEQ ID NO: 4), Table 6, Experiments 106-107): 99%; Number mean (nm) [3, 12]: 63.16 nm; PDI [3, 12]: 0.022; Z-avg (nm) [3, 12]: 77.85 nm; Number mean (nm) [3, 13]: 70 nm; PDI [3, 13]: 0.03; Z-avg (nm) [3, 13]: 86 nm; Number mean (nm) [3, 14]: 76 nm and 71 nm; Z-avg (nm) [3, 14]: 91 nm and 88 nm; Serum TTR % TSS (Transthyretin (TTR); G534, i.v. 0.3 mg/kg): 7.1 % TSS; Serum TTR (Transthyretin (TTR); i.v. 0.1 mg/kg): 916.9 µg/mL; Serum TTR (Transthyretin (TTR); i.v. 0.3 mg/kg): 114.3 µg/mL
3 | CCCCCCCCCC(C)OC(=O)CCCCCCCC(=O)OCC(COC(=O)CCC(OCCCCCCCC)OCCCCCCCC)COC(=O)OCCCN(CC)CC (stereo not shown) [Compound 94, 1-(344,4-bis(octyloxy)butanoyl)oxy)-2-((((3-(diethylamino)propoxy)carbonyl)oxy)methyl)propyl) 9-(undecan-2-yl) nonanedioate] | 6.14 | – | 99% | – | – | – | 78.22 nm | 0.018 | 96.35 nm | 97% | 99% | 77 nm | 0.02 | 95 nm | 80.04 nm | 0.032 | 98.90 nm | 31.7% | 60.0% | 39.5 % TSS | Serum TTR % TSS (Transthyretin (TTR); G534, i.v. 0.3 mg/kg): 8.2 % TSS; Serum TTR (Transthyretin (TTR); i.v. 0.1 mg/kg): 639.5 µg/mL; Serum TTR (Transthyretin (TTR); i.v. 0.3 mg/kg): 132.9 µg/mL
4 | CCCCC/C=C\C/C=C\CCCCCCCC(=O)OCC(COC(=O)CC12CC3CC(CC(C3)C1)C2)COC(=O)OCCCN(CC)CC (stereo not shown) [Compound 107, 3-(2-((3 r,5 r, 7r)-adamantan-1-yl)acetoxy)-2-((((3-(diethylamino)propoxy)carbonyl)oxy)methyl)propyl (9Z,12Z)-octadeca-9,12-dienoate] | 6.43 | – | – | – | – | – | – | – | – | – | – | – | – | – | – | – | – | – | – | – | % E [2, 11]: 94%; Number mean (nm) [3, 13]: 65 nm; PDI [3, 13]: 0.07; Z-avg (nm) [3, 13]: 84 nm

More lines, main results first:

Row | pKa [1] | % E [2, 4] | Encapsulation (%) [2, 5] | Number mean (nm) [3, 6] | PDI [3, 6] | Z-avg (nm) [3, 6] | Number mean (nm) [3, 7] | PDI [3, 7] | Z-avg (nm) [3, 7] | % E (encapsulation efficiency) [2] | % E [2, 8] | Number mean (nm) [3, 9] | PDI [3, 9] | Z-avg (nm) [3, 9] | Number mean (nm) [3, 10] | PDI [3, 10] | Z-avg (nm) [3, 10] | Structure (SMILES) | Editing Mean % Indel (TTR rat gene; i.v. 0.1 mg/kg) | Editing Mean % Indel (TTR rat gene; i.v. 0.3 mg/kg) | Serum TTR % TSS (Transthyretin (TTR); G534, i.v. 0.1 mg/kg) | further results
5 | 7.33 | 95% | 98% | 66.92 nm | 0.014 | 83.69 nm | 56.73 nm | 0.056 | 74.12 nm | – | – | – | – | – | – | – | – | CCCCC/C=C\C/C=C\CCCCCCCC(=O)OCC(COC(=O)CCC(OCCCCCCCC)OCCCCCCCC)COC(=O)NCC1CCCN1CC (stereo not shown) [Compound 40, 3-((4,4-bis(octyloxy)butanoyl)oxy)-2-(((((1-ethylpyrrolidin-2-yl)methyl)carbamoyl)oxy)methyl)propyl (9Z,12Z)-octadeca-9,12-dienoate] | – | – | – | –
6 | 6.85 | 99% | 99% | 56.05 nm | 0.019 | 70.47 nm | 60.35 nm | 0.040 | 76.24 nm | – | – | – | – | – | – | – | – | CCCCC/C=C\C/C=C\CCCCCCCC(=O)OCC(COC(=O)CCC(OCCCCCCCC)OCCCCCCCC)COC(=O)OCC1CCCN(C)C1 (stereo not shown) [Compound 53, 3-((4,4-bis(octyloxy)butanoyl)oxy)-2-(((((1-methylpiperidin-3-yl)methoxy)carbonyl)oxy)methyl)propyl (9Z,12Z)-octadeca-9,12-dienoate] | – | – | – | –
